Literature values in paper PMC6044708 (ACS Omega, 2016).

Key:
Gram-positive bacteria = conditions: comparison in words
S. aureus = conditions: Gram (+), ATCC strain; reference compound
B. subtilis = conditions: Gram (+), ATCC strain; reference compound
E. coli = conditions: Gram (−), ATCC strain; reference compound
P. aeruginosa = conditions: Gram (−), ATCC strain; reference compound

Row | MIC S. aureus (S. aureus) | MIC B. subtilis (B. subtilis) | MIC E. coli (E. coli) | MIC P. aeruginosa (P. aeruginosa) | Substance | activity compared with Arg10–teixobactin (2) (Gram-positive bacteria) | activity compared with the parent compound teixobactin (1) (Gram-positive bacteria)
1 |  |  |  |  | Lys10–teixobactin | more active | 
2 | 2 µg/mL | 0.5 µg/mL | 64 µg/mL | no activity | Arg10–teixobactin [Arg10–teixobactin (2)] |  | 1 order of magnitude less active
